Reference: ChEMBL document CHEMBL1142144, “Semimechanistic pharmacokinetic/pharmacodynamic model for assessment of activity of antibacterial agents from time-kill curve experiments” (2007)
≈ marks a conversion by molar mass, not a printed value.

These molecules were tested on Streptococcus pyogenes (assay: Antibacterial activity against Streptococcus pyogenes M12 by time-kill curve assay).
Assay type: functional

Compound	MIC
CN[C@H](CC(C)C)C(=O)N[C@H]1C(=O)N[C@@H](CC(N)=O)C(=O)N[C@H]2C(=O)N[C@H]3C(=O)N[C@H](C(=O)N[C@H](C(=O)O)c4cc(O)cc(O)c4-c4cc3ccc4O)[C@H](O)c3ccc(c(Cl)c3)Oc3cc2cc(c3O[C@@H]2O[C@H](CO)[C@@H](O)[C@H](O)[C@H]2O[C@H]2C[C@](C)(N)[C@H](O)[C@H](C)O2)Oc2ccc(cc2Cl)[C@H]1O [VANCOMYCIN]	0.25 µg/mL (≈ 0.173 µM)
CC1(C)S[C@@H]2[C@H](NC(=O)Cc3ccccc3)C(=O)N2[C@H]1C(=O)O [PENICILLIN G]	0.012 µg/mL (≈ 0.0359 µM)
COc1c(N2C[C@@H]3CCCN[C@@H]3C2)c(F)cc2c(=O)c(C(=O)O)cn(C3CC3)c12 [MOXIFLOXACIN]	0.125 µg/mL (≈ 0.311 µM)
CC[C@H]1OC(=O)[C@H](C)[C@@H](O[C@H]2C[C@@](C)(OC)[C@@H](O)[C@H](C)O2)[C@H](C)[C@@H](O[C@@H]2O[C@H](C)C[C@H](N(C)C)[C@H]2O)[C@](C)(O)C[C@@H](C)C(=O)[C@H](C)[C@@H](O)[C@]1(C)O [ERYTHROMYCIN]	0.125 µg/mL (≈ 0.17 µM)
CO/N=C(\C(=O)N[C@@H]1C(=O)N2C(C(=O)O)=C(COC(N)=O)CS[C@H]12)c1ccco1 [CEFUROXIME]	0.0313 µg/mL (≈ 0.0738 µM)
